These results are taken from ChEMBL document CHEMBL1155294, “Synthesis and evaluation of 6-methyl-3-phenylcoumarins as potent and selective MAO-B inhibitors” (Bioorg Med Chem Lett, 2009).

Series [1] deals with T1, Amine oxidase [flavin-containing] B (Homo sapiens, UniProt P27338).
T1 sequence (P27338 whole entry): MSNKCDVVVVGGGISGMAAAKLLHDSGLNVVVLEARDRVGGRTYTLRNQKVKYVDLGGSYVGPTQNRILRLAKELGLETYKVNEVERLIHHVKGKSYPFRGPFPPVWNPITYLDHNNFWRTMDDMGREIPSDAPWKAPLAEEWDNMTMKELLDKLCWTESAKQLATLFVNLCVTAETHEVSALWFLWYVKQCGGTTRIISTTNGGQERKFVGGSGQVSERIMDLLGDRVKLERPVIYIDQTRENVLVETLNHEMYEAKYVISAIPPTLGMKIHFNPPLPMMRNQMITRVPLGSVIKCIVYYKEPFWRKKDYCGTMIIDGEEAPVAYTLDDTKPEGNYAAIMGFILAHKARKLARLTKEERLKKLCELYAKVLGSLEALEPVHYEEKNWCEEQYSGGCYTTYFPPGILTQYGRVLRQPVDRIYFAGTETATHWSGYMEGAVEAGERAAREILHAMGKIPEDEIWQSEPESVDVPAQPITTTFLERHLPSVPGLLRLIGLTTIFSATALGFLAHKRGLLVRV
As to the kind of experiment: Inhibition of human recombinant MAOB expressed in BTI cells at 100 uM. The format is cell-based.

The target of series [2] is T2, Amine oxidase [flavin-containing] A (Homo sapiens, UniProt P21397).
T2 sequence (P21397 whole entry): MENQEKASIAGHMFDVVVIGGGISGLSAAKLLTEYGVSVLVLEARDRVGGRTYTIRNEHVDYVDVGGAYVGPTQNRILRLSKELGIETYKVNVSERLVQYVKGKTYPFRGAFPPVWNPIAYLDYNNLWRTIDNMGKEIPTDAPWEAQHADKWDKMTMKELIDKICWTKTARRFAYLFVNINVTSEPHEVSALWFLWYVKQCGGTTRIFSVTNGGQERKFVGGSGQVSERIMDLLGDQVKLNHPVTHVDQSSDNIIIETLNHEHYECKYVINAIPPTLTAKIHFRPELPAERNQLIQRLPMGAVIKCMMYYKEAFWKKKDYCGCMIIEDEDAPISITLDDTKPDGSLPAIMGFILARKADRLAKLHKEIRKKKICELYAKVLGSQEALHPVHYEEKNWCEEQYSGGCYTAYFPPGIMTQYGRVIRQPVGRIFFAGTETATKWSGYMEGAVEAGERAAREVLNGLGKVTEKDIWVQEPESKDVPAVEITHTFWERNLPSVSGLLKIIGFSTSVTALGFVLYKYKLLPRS
As to the kind of experiment: Inhibition of human recombinant MAOA expressed in BTI cells at 100 uM. The class given is cell-based.

The species entered for series [3] is Homo sapiens. As to the kind of experiment: Selectivity index, ratio of IC50 for human recombinant MAOA to IC50 for human recombinant MAOB.
Series [4] addresses T1, Amine oxidase [flavin-containing] B. As to the kind of experiment: Inhibition of human recombinant MAOB expressed in BTI cells. The format is cell-based.

Some results are limits rather than exact numbers.

One may read the IC50 as the concentration that inhibits the measured activity by half. With `COc1ccccc1-c1cc2cc(C)ccc2oc1=O`, the IC50 entry in series [1] is recorded as “Not Active”. In addition, the “inhibition (INH)” value in series [2] is listed as “Not Active”.

Turning to `COc1ccc(-c2cc3cc(C)ccc3oc2=O)cc1`, the Ratio IC50 in series [3] was above 7660. In series [2], the “inhibition (INH)” value is on record as “Not Active”.

For `COc1cccc(-c2cc3cc(C)ccc3oc2=O)c1`, the Ratio IC50 in series [3] was above 125000. For the same compound, the IC50 in series [4] was found to be 803 pM. For the same compound, in series [2], the “inhibition (INH)” value is “Not Active”.

Turning to `Cc1ccc2oc(=O)c(-c3ccc(O)cc3)cc2c1`, the “inhibition (INH)” value in series [2] is “Not Active”.
